Assay results: patent US12522614B2, “Topical phosphoinositide 3-kinase inhibitors” (VENTHERA, INC., priority 2019, dated 2026)

Legend:
[1] = target: T1, PI3K (p110a(E542K)/p85a) (Homo sapiens, UniProt P42336, E542K); assay: Lipid kinase inhibitory activity, ADP-Glo; format: biochemical; conditions: α E542K
T1 construct: purchased Reaction Biology Corporation (RBC)
Description: (§1) Lipid kinases: Lipid kinases from Reaction Biology Corporation (RBC) in ADP-Glo format were used.
(§2) Assay Description: The kinase reactions utilized ATP and produced ADP as a byproduct. The ADP production was quantified by ADP-Glo luminescence detection. This assay was a 3-step reaction. First, the kinase reaction with lipid substrate was carried out in the presence of ATP, and the reaction was quenched and depleted remaining ATP with ADP-Glo™ reagent, and then finally ADP was converted to ATP which was measured using a luciferase/luciferin reaction.
(§3) Assay Procedure: The assay was performed according to the steps as follows: • 1. Preparing substrate in freshly prepared reaction buffer; • 2. Delivering kinase into the substrate solution and gently mixing; • 3. Delivering compounds in […] into the kinase reaction mixture by Acoustic technology (Echo550; nanoliter range), incubating for 20 minutes at room temperature; • 4. Delivering ATP into the reaction mixture to initiate the reaction; • 5. Incubating for 30 minutes at 30° C.; • 6. Quenching the reaction with ADP-Glo reagent and incubating for 40 minutes; • 7. Adding Detection Mixture and incubating for 30 minutes; and • 8. Measuring luminescence.
(§4) Data Analysis: The luminescence was converted into μM ADP production based on ADP standard curves. The nonlinear regression to obtain the standard curve and IC50 values were performed using Graphpad Prism software.

[2] = target: T2, PI3K (p110a(H1047R)/p85a) (Homo sapiens, UniProt P42336, H1047R); assay: Lipid kinase inhibitory activity, ADP-Glo; format: biochemical; conditions: α H1047R
T2 construct: purchased Reaction Biology Corporation (RBC)
T2 sequence (P42336 whole entry H1047R): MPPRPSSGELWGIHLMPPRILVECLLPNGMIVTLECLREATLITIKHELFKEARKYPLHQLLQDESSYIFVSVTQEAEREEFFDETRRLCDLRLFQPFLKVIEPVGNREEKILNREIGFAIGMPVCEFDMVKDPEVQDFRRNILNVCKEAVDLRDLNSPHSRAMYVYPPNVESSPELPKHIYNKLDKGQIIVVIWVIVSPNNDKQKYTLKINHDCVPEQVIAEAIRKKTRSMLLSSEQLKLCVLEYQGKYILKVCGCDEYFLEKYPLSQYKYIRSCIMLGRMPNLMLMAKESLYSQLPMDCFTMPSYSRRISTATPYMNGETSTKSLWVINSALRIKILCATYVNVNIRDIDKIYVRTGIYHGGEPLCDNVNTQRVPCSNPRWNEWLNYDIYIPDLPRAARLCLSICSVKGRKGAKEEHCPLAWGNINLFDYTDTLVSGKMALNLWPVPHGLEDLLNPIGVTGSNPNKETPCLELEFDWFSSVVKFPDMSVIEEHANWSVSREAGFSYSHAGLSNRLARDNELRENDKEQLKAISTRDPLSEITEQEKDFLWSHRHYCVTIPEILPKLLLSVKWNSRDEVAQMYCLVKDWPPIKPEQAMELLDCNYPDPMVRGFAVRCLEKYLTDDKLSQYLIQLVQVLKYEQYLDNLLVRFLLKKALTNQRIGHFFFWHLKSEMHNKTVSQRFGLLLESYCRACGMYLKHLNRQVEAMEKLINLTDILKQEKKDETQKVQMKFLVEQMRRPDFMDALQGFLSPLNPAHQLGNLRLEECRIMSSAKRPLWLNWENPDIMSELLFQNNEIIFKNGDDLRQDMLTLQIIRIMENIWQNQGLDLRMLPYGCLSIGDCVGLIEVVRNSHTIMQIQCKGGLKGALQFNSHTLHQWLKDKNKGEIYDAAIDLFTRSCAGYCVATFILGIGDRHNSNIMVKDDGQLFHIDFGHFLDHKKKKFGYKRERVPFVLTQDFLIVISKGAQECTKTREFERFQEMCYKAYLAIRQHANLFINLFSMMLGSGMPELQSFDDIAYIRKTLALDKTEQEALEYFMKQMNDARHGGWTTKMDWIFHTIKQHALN
T2 sequence (P27986 whole entry partner): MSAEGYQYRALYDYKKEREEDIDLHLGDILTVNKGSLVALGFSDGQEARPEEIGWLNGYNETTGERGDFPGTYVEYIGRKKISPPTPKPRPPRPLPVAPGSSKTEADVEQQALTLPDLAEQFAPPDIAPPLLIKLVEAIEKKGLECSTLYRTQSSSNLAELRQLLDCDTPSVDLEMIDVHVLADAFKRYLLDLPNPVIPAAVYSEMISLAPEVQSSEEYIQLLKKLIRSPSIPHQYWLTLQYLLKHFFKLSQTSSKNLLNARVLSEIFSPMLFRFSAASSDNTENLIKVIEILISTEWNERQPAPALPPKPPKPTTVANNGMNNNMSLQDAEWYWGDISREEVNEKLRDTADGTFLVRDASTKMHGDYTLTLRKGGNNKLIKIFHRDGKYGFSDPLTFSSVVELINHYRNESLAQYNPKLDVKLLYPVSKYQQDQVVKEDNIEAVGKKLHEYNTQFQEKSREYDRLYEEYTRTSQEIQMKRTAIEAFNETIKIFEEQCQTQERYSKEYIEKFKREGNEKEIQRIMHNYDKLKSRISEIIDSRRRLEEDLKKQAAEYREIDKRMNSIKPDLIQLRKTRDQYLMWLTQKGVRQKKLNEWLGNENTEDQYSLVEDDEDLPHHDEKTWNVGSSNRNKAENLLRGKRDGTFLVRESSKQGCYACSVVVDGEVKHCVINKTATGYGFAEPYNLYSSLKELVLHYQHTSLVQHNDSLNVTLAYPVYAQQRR
Description: as §1, §2, §3, §4

[3] = target: T3, PI3Kd (p110d/p85a) (Homo sapiens, UniProt O00329); assay: Lipid kinase inhibitory activity, ADP-Glo; format: biochemical; conditions: δ
T3 construct: purchased Reaction Biology Corporation (RBC)
Description: as §1, §2, §3, §4

[4] = target: T4, PI3Kg (p110g) (Homo sapiens, UniProt P48736); assay: Lipid kinase inhibitory activity, ADP-Glo; format: biochemical; conditions: γ
T4 construct: purchased Reaction Biology Corporation (RBC)
T4 sequence (P48736 whole entry): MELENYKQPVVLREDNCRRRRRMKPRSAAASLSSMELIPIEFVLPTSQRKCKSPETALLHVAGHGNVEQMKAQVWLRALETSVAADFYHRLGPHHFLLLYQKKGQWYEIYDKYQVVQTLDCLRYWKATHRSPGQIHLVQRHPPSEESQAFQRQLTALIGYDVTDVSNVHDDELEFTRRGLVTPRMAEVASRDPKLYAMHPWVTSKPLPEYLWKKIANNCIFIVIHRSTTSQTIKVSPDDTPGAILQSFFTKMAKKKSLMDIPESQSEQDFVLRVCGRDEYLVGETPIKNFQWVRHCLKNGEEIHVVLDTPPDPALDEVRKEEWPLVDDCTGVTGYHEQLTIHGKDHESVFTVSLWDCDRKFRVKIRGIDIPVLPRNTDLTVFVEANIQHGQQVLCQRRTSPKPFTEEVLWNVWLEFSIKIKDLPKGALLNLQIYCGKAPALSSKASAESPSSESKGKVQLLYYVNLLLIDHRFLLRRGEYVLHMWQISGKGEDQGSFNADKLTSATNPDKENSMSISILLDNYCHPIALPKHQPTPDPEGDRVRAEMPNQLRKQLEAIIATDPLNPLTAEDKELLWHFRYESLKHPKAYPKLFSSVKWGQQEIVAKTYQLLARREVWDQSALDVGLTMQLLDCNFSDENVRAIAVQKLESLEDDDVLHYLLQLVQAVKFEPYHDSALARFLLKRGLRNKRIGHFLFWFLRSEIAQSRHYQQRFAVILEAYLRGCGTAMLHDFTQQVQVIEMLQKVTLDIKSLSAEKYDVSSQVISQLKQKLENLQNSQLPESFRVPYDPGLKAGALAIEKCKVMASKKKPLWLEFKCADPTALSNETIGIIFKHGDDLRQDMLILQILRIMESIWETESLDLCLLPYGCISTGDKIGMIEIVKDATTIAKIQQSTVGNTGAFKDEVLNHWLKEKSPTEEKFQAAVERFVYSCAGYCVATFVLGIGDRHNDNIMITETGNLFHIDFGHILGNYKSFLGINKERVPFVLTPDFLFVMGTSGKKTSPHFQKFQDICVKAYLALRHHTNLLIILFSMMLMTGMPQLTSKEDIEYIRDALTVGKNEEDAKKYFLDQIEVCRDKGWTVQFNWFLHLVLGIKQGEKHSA
Description: as §1, §2, §3, §4

[5] = target: T5, PI3K (p110a(E545K)/p85a) (Homo sapiens, UniProt P42336, E545K); assay: Lipid kinase inhibitory activity, ADP-Glo; format: biochemical; conditions: α E545K
T5 construct: purchased Reaction Biology Corporation (RBC)
T5 sequence (P42336 whole entry E545K): as the sequence (P42336 whole entry H1047R) above, with E545K, R1047H counted along it
T5 sequence (P27986 whole entry partner): as the sequence (P27986 whole entry partner) above
Description: as §1, §2, §3, §4

[6] = target: T6, PI3Kb (p110b/p85a) (Homo sapiens, UniProt P42338); assay: Lipid kinase inhibitory activity, ADP-Glo; format: biochemical; conditions: β
T6 construct: purchased Reaction Biology Corporation (RBC)
T6 sequence (P42338 whole entry): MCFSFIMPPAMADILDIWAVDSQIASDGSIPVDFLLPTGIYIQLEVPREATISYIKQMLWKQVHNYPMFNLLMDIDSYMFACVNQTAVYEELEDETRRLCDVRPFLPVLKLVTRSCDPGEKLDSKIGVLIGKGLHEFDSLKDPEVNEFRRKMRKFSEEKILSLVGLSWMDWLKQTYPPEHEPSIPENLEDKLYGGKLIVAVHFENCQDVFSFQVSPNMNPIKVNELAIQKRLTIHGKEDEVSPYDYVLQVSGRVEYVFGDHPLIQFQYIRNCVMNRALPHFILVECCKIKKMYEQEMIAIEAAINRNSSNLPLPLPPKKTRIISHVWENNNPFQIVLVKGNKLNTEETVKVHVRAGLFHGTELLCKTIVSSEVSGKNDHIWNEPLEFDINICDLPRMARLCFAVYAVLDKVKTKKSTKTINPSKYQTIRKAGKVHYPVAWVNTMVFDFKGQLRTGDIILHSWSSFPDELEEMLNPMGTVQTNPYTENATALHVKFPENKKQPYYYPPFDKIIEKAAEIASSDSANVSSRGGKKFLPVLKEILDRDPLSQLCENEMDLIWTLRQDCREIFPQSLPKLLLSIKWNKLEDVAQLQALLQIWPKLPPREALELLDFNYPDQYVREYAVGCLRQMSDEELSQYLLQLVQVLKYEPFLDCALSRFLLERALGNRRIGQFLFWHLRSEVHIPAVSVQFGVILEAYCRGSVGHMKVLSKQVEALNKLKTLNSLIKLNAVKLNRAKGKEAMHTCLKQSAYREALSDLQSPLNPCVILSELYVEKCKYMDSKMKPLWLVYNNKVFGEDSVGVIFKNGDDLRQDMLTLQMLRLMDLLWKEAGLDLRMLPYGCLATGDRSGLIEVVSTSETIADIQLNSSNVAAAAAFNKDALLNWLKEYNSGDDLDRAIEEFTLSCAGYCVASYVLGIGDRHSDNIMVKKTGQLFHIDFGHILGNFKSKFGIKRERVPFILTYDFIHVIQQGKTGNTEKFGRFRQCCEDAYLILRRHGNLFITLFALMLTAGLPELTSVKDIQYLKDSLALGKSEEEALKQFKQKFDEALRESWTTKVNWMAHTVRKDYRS
T6 sequence (P27986 whole entry partner): as the sequence (P27986 whole entry partner) above
Description: as §1, §2, §3, §4

[7] = target: T7, MTOR/FRAP1 (Homo sapiens, UniProt P42345); assay: Lipid kinase inhibitory activity, ADP-Glo; format: biochemical
T7 construct: purchased Reaction Biology Corporation (RBC)
Description: as §1, §2, §3, §4

[8] = target: T8, PI3Ka (p110a/p85a) (Homo sapiens, UniProt P42336); assay: Lipid kinase inhibitory activity, ADP-Glo; format: biochemical; conditions: α
T8 construct: purchased Reaction Biology Corporation (RBC)
T8 sequence (P42336 whole entry): as the sequence (P42336 whole entry H1047R) above, with R1047H counted along it
T8 sequence (P27986 whole entry partner): as the sequence (P27986 whole entry partner) above
Description: as §1, §2, §3, §4

[9] = Saturation concentration in formulation or receiver medium; format: physicochemical; conditions: gel formulation with excipients of Example 8 (Table 2)
Description: The liquid excipients, i.e. DMSO, oleic acid, Transcutol® P, and dipropylene glycol were mixed in a 20-mL vial, by vortex agitation. The active ingredient, a compound of formula (I), for example Compound 1.002 was then added, and the vial content was sonicated for 10 minutes to dissolve the compound. […] Hydroxylpropyl cellulose (HPC) was added, and the vial was agitated by vortex for another ten minutes to obtain the gel formulation. The viscosity of the clear gel was measured to be in a range of about 7,000 to 10,000 centipoise (cp).
(§5) Skin flux studies were run for a period of 48 hours. At predetermined intervals (2, 4, 8, 24 and 48 hours) after starting the experiment, the entire contents of the receiver compartment were collected for determining concentrations of the drug by HPLC. The receiver compartment was refilled with fresh receiver medium. The receiver medium was pH 7.4 phosphate buffer with 0.5 mg/ml of Oleath 20 with the saturation concentration of the drug in the receptor medium being 0.152 mg/ml. This solubility of the drug in the receiver medium was enough to ensure sink conditions throughout each collection interval.

[10] = In vitro human skin permeation study of topical gel formulations (Franz diffusion cells); format: in vitro ADME; conditions: saturated gel formulations, skin flux experiments
Source text: The gel formulation of Example 8 was used as the donor phase to determine the permeation of Compound 1.002 through human skin and its effectiveness as a topical application. Three skin donors and three diffusion cells (for each donor) per formulation were used in the in vitro skin permeation experiments. Split thickness dermatomed (approximately at […] thickness) human cadaver skin, supplied by New York Firefighters Skin Bank, NY, was used to determine the permeation rate of the tested compound (i.e., the drug) in vitro. All in vitro skin permeation studies were conducted using the Vertical Diffusion Cells assembly with consoles (Model FDC-6), and heating controllers (Logan Instruments Inc. Somerset, NJ). Each assembly consisted of six vertical, jacketed (37° C.±0.5° C.) 12-mL Franz diffusion cells with magnetic stirrer and 1.767 cm^2 diffusion area.
as §5
Samples of the receptor phase were obtained at 2, 4, 8, 12, 24 and 48 h and concentrations of Compound 1.002 and 3-(4-morpholinothieno(3,2-d)pyrimidin-2-yl)phenol (metabolite of Compound 1.002, abbreviated as MTPP) were determined using a validated HPLC method. The metabolism of Compound 1.002 to MTPP takes place in the human skin by esterase enzymes.
HPLC method: Column—Gemini C-18 4.6×150 mm, 5 μm particle size; Mobile Phase—water:acetonitrile 25:75 containing 0.1% TFA; Flow Rate—1 mL/min; Detection—274 nm; Column Temperature—40° C.; and Run Time—10 min. The retention times for MTPP and Compound 1.002 were 3.9 and 7.2 minutes, respectively.
The skin flux of drugs and cumulative amount of drugs permeated (sum of MTPP and Compound 1.002) for a period of 48 hours were calculated and are shown in Table 3. FIG. 3 represents a plot of Cumulative amount permeated versus time.

[11] = Accelerated stability study of topical gel formulations at 80° C.; format: physicochemical; conditions: gel formulation (Table 2 excipients), 80° C.
Description: Topical gel formulations were prepared using excipients as shown in Table 2 according to Example 8, in which Compounds 1.002, 1.012, and 1.006 were used as the active ingredient, respectively. These gel formulations were subjected to stability study at 80° C. for 10 days. Stability under the condition of at 80° C. for 10 days is expected to be approximately equivalent to the stability for three (3) years at room temperature. A relative purity of the tested compound after being exposed for 5 days and 10 days at 80° C. was determined by HPLC, as compared to its initial purity (at day 0).
The values shown in the table are percent hydrolysis of the respective compounds to the parent compound MTPP.
Topical gel formulations of Compound 1.002 were prepared using excipients as shown in Table 2 according to Example 8, in which the content of oleic acid varied at 1%, 2%, 5%, and 10%, respectively. These gel formulations were subjected to stability study at 80° C. for 10 days, which is expected to be approximately equivalent to the stability for three (3) years at room temperature. A purity of the tested compound on day 0, 5, 7, and 10 at 80° C. was determined by HPLC. The detected impurity of the tested compound appears to be the hydrolysis product, as MTPP. Table 17 represents stability data of Compound 1.002 in topical formulations having oleic acid at various contents.
Gel formulations of Example 17 were subjected to stability study at 80° C. for 10 days. Stability under the condition of at 80° C. for 10 days is expected to be approximately equivalent to the stability for three (3) years at room temperature. A relative purity of Compound 1.002 after being exposed for 5 days and 10 days at 80° C. was determined by HPLC, as compared to its initial purity (at day 0).

[12] = In vitro human skin permeation study of topical gel formulations (Franz diffusion cells); format: in vitro ADME; conditions: human skin; for Cumulative permeation (intact compound) / Hydrolysis of Cmpd. 1.001 to MTPP: Study-4, saturated gel
[13] = Study-5, Table 6A experiment, saturated gel, 2 h
[14] = Study-5, Table 6A experiment, saturated gel, 4 h
[15] = Study-5, Table 6A experiment, saturated gel, 8 h
[16] = Study-5, Table 6A experiment, saturated gel, 24 h
[17] = Study-5, Table 6A experiment, saturated gel, 48 h
[18] = Study-5, Table 6B experiment, gel saturated at 215 mg/mL, 2 h
[19] = Study-5, Table 6B experiment, gel saturated at 215 mg/mL, 4 h
[20] = Study-5, Table 6B experiment, gel saturated at 215 mg/mL, 8 h
[21] = Study-5, Table 6B experiment, gel saturated at 215 mg/mL, 24 h
[22] = Study-5, Table 6B experiment, gel saturated at 215 mg/mL, 48 h

T1 sequence (P42336 whole entry E542K): as the sequence (P42336 whole entry H1047R) above, with E542K, R1047H counted along it
T1 sequence (P27986 whole entry partner): as the sequence (P27986 whole entry partner) above

OCc1cccc(-c2nc(N3CCOCC3)c3sccc3n2)c1 [MTPPM, (3-(4-morpholinothieno[3,2-d]pyrimidin-2-yl)phenyl)methanol, reference compound]
IC50 [1]: 9 nM | IC50 [2]: 7.8 nM | IC50 [3]: 17 nM | IC50 [4]: 61 nM | IC50 [5]: 9.8 nM | IC50 [6]: 56 nM | IC50 [7]: 113 nM | IC50 [8]: 7 nM

CCCCCC(=O)Oc1cccc(-c2nc(N3CCOCC3)c3sccc3n2)c1 [Compound 1.006, 3-(4-Morpholinothieno[3,2-d]pyrimidin-2-yl)phenyl Hexanoate]
Saturation concentration in the gel formulation [9]: 215 mg/mL | Metabolism to MTPP during permeation through human skin [10]: metabolize into MTPP | Relative Purity ([11]; Day 0): 100% | Relative Purity ([11]; Day 5): 94% | Relative Purity ([11]; Day 10): 92% | Cumulative permeation, Compound 1.006 [12, 13]: 0.0 μg/cm^2 | Hydrolysis of Cmpd. 1.006 to MTPP [12, 13]: 100% | Cumulative permeation, Compound 1.006 [12, 14]: 0.0 μg/cm^2 | Hydrolysis of Cmpd. 1.006 to MTPP [12, 14]: 100% | Cumulative permeation, Compound 1.006 [12, 15]: 1.0 μg/cm^2 | Hydrolysis of Cmpd. 1.006 to MTPP [12, 15]: 96.7% | Cumulative permeation, Compound 1.006 [12, 16]: 13.0 μg/cm^2 | Hydrolysis of Cmpd. 1.006 to MTPP [12, 16]: 79.5% | Cumulative permeation, Compound 1.006 [12, 17]: 30.5 μg/cm^2 | Hydrolysis of Cmpd. 1.006 to MTPP [12, 17]: 82.0% | Cumulative permeation, Compound 1.006 [12, 18]: 0.0 μg/cm^2 | Hydrolysis of Cmpd. 1.006 to MTPP [12, 18]: 100% | Cumulative permeation, Compound 1.006 [12, 19]: 0.5 μg/cm^2 | Hydrolysis of Cmpd. 1.006 to MTPP [12, 19]: 93.3% | Cumulative permeation, Compound 1.006 [12, 20]: 0.5 μg/cm^2 | Hydrolysis of Cmpd. 1.006 to MTPP [12, 20]: 97.8% | Cumulative permeation, Compound 1.006 [12, 21]: 0.6 μg/cm^2 | Hydrolysis of Cmpd. 1.006 to MTPP [12, 21]: 98.9% | Cumulative permeation, Compound 1.006 [12, 22]: 0.6 μg/cm^2 | Hydrolysis of Cmpd. 1.006 to MTPP [12, 22]: 99.4%

COc1cccc(-c2nc(N3CCOCC3)c3sccc3n2)c1 [Compound 1.001, 4-(2-(3-Methoxyphenyl)thieno[3,2-d]pyrimidin-4-yl)morpholine]
Metabolism to MTPP during permeation through human skin [10]: appeared not to metabolize to MTPP | Cumulative permeation (intact compound) ([12]; 2 h): 0.0 μg/cm^2 | Hydrolysis of Cmpd. 1.001 to MTPP ([12]; 2 h): 0.0 | Cumulative permeation (intact compound) ([12]; 4 h): 10.2 μg/cm^2 | Hydrolysis of Cmpd. 1.001 to MTPP ([12]; 4 h): 0.0 | Cumulative permeation (intact compound) ([12]; 8 h): 51.8 μg/cm^2 | Hydrolysis of Cmpd. 1.001 to MTPP ([12]; 8 h): 0.0 | Cumulative permeation (intact compound) ([12]; 24 h): 202.1 μg/cm^2 | Hydrolysis of Cmpd. 1.001 to MTPP ([12]; 24 h): 0.0 | Cumulative permeation (intact compound) ([12]; 48 h): 260.4 μg/cm^2 | Hydrolysis of Cmpd. 1.001 to MTPP ([12]; 48 h): 0.0
